# Data published in PubChem BioAssay AID2060342 (Molecular Pharmacology Branch, DTP, NCI, 2025).
# pIC50: −log10 of the molar value.
# Test system: 171881-019-R-J1-PDC multicell spheroid viability
# Assay: Anticancer human tumor 171881-019-R-J1-PDC patient-derived invasive breast carcinoma cell line growth inhibition [IpAb]
# Settings: for pIC50: curve of first compound; for viability, T/C: stronger effect = lower value
# Text: Combinatorial screen of targeted agents with ipatasertib and abemaciclib in multi-cell type tumor spheroids
# A high-throughput screen of multi-cell type tumor spheroids was designed to identify active combinations of targeted small molecules and ipatasertib or abemaciclib. Complex spheroids include a stromal component modeled by human endothelial cells (HUVEC) and fibroblasts modeled by human mesenchymal stem cells (MSCs). The concentration ranges selected for each drug and investigational agent were based upon clinically achievable concentrations if the clinical Cmax of the agent was known.
# Compounds. The drugs and investigational agents: ipatasertib (NSC767898), abemaciclib(NSC768073), selumetinib (NSC741078), trametinib (758246), adavosertib (NSC754352), everolimus (NSC733504), sapanisertib (NSC764658), vemurafenib (NSC761431), venetoclax (NSC766270), copanlisib (NSC809693), apelisib (NSC765974), palbociblib (NSC758247), vemurafenib (NSC761431), dabrafenib (NSC764134), ravoxertinib (NSC781343), BMS-387032 (NSC767048), sotorasib (NSC818433), talazoparib (NSC767125) and afursertib (NSC778305), were obtained from the National Cancer Institute (NCI) Developmental Therapeutics Program Chemical Repository. The FDA-approved anticancer drug set is available from the NCI Developmental Therapeutics Program. […] The stock solutions were prepared in dimethyl sulfoxide (DMSO, Sigma-Aldrich, St. Louis, MO, cat. D2650) at 800-fold the tested concentration and stored at -70 degrees C prior to their use. All drugs and investigational agents were tested over a range starting from a high concentration at or near the clinical Cmax and decreasing in half-log increments. If the clinical Cmax for an agent had not been determined, the highest concentration tested was 10 microM.
# NCI60 Cell Culture. NCI60 cell lines were obtained from the NCI Developmental Therapeutics Program Tumor Repository. For each lot of cells, the Repository performed Applied Biosystems AmpFLSTR Identifiler testing with PCR amplification to confirm consistency with the published Identifier STR profile for each cell line. Cells were kept in continuous culture for no more than 20 passages. The optimal seeding densities for each of the cell lines at each time point assessed were determined prior to performing the concentration response studies. Briefly, the NCI60 human tumor lines were grown as monolayers in RPMI 1640 medium supplemented with 10% FBS and 2 mmol/L L-glutamine.
# An additional 9 lines were from the NCI60 cell line panel including MDA-MB-231 breast carcinoma, MDA-MB-468 breast carcinoma, MCF7 breast carcinoma, Hs578T breast carcinoma, MALME-3M melanoma, SK-MEL-2 melanoma, SK-OV-3 ovarian carcinoma, DU-145 prostate carcinoma, PC-3 prostate carcinoma, all cell lines along with major genetic alterations are listed on Table 2. Pooled donor human umbilical vein endothelial cells (HUVEC, Lonza, cat. CC-2519) and human mesenchymal stem cells (hMSC, Lonza, cat. PT-2501) were purchased from Lonza (Walkersville, MD).
# PDMR cell lines were grown in complete medium (DC medium): Dulbecco's modified Eagle's medium (DMEM)/F12 supplemented with 5% fetal bovine serum (FBS), 2 mM L-glutamine, 100 U/mL penicillin and 100 µg/ml streptomycin, 0.4 µg/ml hydrocortisone, 10 ng/ml epidermal growth factor (EGF) recombinant human protein, 24 µg/mL adenine, and 0.1 mg/mL primocin. During culture from frozen stock vials, PDMR cells were cultured in the same medium containing 10 µM Y-27632 (see Table 3). The PDCs were cultured in complete DMEM/F12 media without 10 microM Y-27632 dihydrochloride for at least two passages prior to the screen. The pooled donor HUVEC and hMSC were cultured in endothelial cell growth medium 2 (PromoCell, Heidelberg, Germany, cat. C-22011) and mesenchymal stem cell growth medium 2 (PromoCell, cat. C-28009), respectively. For all experiments, HUVEC and hMSC were used at passages </=5.
# […]
# 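Also: spheroids exposed to the agents for seven days before readout.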
compound,measurement,setting,value
CC1(C)CCC(CN2CCN(c3ccc(C(=O)NS(=O)(=O)c4ccc(NCC5CCOCC5)c([N+](=O)[O-])c4)c(Oc4cnc5[nH]ccc5c4)c3)CC2)=C(c2ccc(Cl)cc2)C1 + CCN1CCN(Cc2ccc(Nc3ncc(F)c(-c4cc(F)c5nc(C)n(C(C)C)c5c4)n3)nc2)CC1,pIC50,second compound 0.01 µM,5.27
same,pIC50,second compound 0.0316 µM,5.21
same,pIC50,second compound 0.1 µM,5.26
same,pIC50,second compound 0.316 µM,5.22
same,pIC50,second compound 1 µM,5.18
same,"viability, T/C","second compound 0.01 µM, first compound 0.0316 µM",84.5%
same,"viability, T/C","second compound 0.01 µM, first compound 0.1 µM",79%
same,"viability, T/C","second compound 0.01 µM, first compound 0.316 µM",76.6%
same,"viability, T/C","second compound 0.01 µM, first compound 1 µM",72.4%
same,"viability, T/C","second compound 0.01 µM, first compound 3.16 µM",83.4%
same,"viability, T/C","second compound 0.01 µM, first compound 10 µM",16.6%
same,"viability, T/C","second compound 0.0316 µM, first compound 0.0316 µM",89.7%
same,"viability, T/C","second compound 0.0316 µM, first compound 0.1 µM",86.7%
same,"viability, T/C","second compound 0.0316 µM, first compound 0.316 µM",86.8%
same,"viability, T/C","second compound 0.0316 µM, first compound 1 µM",70.4%
same,"viability, T/C","second compound 0.0316 µM, first compound 3.16 µM",89.3%
same,"viability, T/C","second compound 0.0316 µM, first compound 10 µM",25.3%
same,"viability, T/C","second compound 0.1 µM, first compound 0.0316 µM",109%
same,"viability, T/C","second compound 0.1 µM, first compound 0.1 µM",105%
same,"viability, T/C","second compound 0.1 µM, first compound 0.316 µM",98.9%
same,"viability, T/C","second compound 0.1 µM, first compound 1 µM",89%
same,"viability, T/C","second compound 0.1 µM, first compound 3.16 µM",79%
same,"viability, T/C","second compound 0.1 µM, first compound 10 µM",22.9%
same,"viability, T/C","second compound 0.316 µM, first compound 0.0316 µM",120%
same,"viability, T/C","second compound 0.316 µM, first compound 0.1 µM",117%
same,"viability, T/C","second compound 0.316 µM, first compound 0.316 µM",109%
same,"viability, T/C","second compound 0.316 µM, first compound 1 µM",99.7%
same,"viability, T/C","second compound 0.316 µM, first compound 3.16 µM",89.2%
same,"viability, T/C","second compound 0.316 µM, first compound 10 µM",21.1%
same,"viability, T/C","second compound 1 µM, first compound 0.0316 µM",138%
same,"viability, T/C","second compound 1 µM, first compound 0.1 µM",139%
same,"viability, T/C","second compound 1 µM, first compound 0.316 µM",136%
same,"viability, T/C","second compound 1 µM, first compound 1 µM",128%
same,"viability, T/C","second compound 1 µM, first compound 3.16 µM",104%
same,"viability, T/C","second compound 1 µM, first compound 10 µM",18.4%
